Laboratory results from publication PMC9933440 (Crystal Growth & Design, 2022).

Tests used:
[1] = ref 77 (4AP), ref 78 (4DMP), ref 79 (PPZ); cited from earlier work
[2] = pKa (base) – pKa (acid)
physchem = conditions: pH 6.5
Experimental: Solubility experiments were conducted in sodium phosphate buffer solutions at pH 6.5 and 37 °C to simulate intestinal physiological conditions. For each experiment, an excess crystalline solid was sieved through a 300 μm sieve and introduced into a flask with a screw top containing 100 mL of the medium. The solution was stirred at 200 rpm using a magnetic stir bar for 48 h to reach the equilibrium state. […] After each sampling, the volume of the liquid removed from the suspension was not compensated. The withdrawn suspension was filtered through 0.2 μm nylon filters and diluted prior to high-performance liquid chromatography (HPLC) analysis. The solubility experiment for each crystal form was repeated in triplicate. After the last sample collection, the remaining solid material in the suspension was filtered, dried, and characterized by IR and PXRD.
A C18 HPLC column (YMC-Pack ODS-A column, 4.6 mm × 250 mm, 5 μm) with a flow rate of 1 mL min^–1 was employed, and the column temperature was set at 25 °C. The binary mobile phase consisted of acetonitrile and sodium phosphate buffer (pH 6.5) in a volume ratio of 25:75. The samples were diluted appropriately with the mobile phase, and the absorbance was measured at 347 nm.

[3] = pH <3; cited from earlier work

SMILES	pKa in water (salt former) [1]	ΔpKa for MEL ([2]; hydroxyl group of MEL)	ΔpKa for PRM ([2]; hydroxyl group of PRM)	time to highest solubility / maximum dissolved concentration / equilibrium (physchem)	degradation at lower pH [3]
Nc1ccncc1 [4AP, 4-aminopyridine]	9.17[77]	8.08	7.31		
Cc1cnc(NC(=O)C2=C(O)c3ccccc3S(=O)(=O)N2C)s1 [MEL, meloxicam]				90 min	significant degradation
